In patent publication US12257247B2 (Monte Rosa Therapeutics AG, priority 2023, dated 2025):
Read-outs that look alike come from different tables or passages of the source.

Biological target: T1, VAV1 (Homo sapiens, UniProt P15498+Q96SW2)
T1 construct: A heterozygous VAV1 C-terminal HiBiT knock-in pool was generated at Monte Rosa Therapeutics from a clonal Jurkat cell; endogenous in cells; host or cells: Jurkat clone stably expressing LgBiT, homozygous GSPT1-G575N; heterozygous VAV1-HiBiT knock-in pool
Experiment: VAV1 degradation activity, VAV1-HiBiT knock-in Jurkat luminescence assay (Example A, Table 1)
Format: cell-based
Conditions: VAV1-HiBiT knock-in Jurkat cells; for Dmax: Jurkat
Outline: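 Luminescence was measured at 6 and 24 h after adding compound (10 μM stock) to VAV1-HiBiT knock-in Jurkat cells, which had been pre-incubated ~16 h at 37° C. in RPMI/10% FBS containing Endurazine. EC50 values came from control-normalised responses fitted to a 3-parameter logistic model with hillslope fixed at 1.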

[1] = luminescence read at 6 and 24 hours, read-out: VAV1 Dmax %
[2] = luminescence read at 6 and 24 hours, read-out: VAV1 Dmax %, class
[3] = luminescence read at 6 and 24 hours, read-out: VAV1 DC50
[4] = luminescence read at 6 and 24 hours, read-out: VAV1 DC50 (nM), class
[5] = luminescence read at 6 and 24 hours after compound addition, read-out: VAV1 Dmax %
[6] = luminescence read at 6 and 24 hours after compound addition, read-out: VAV1 Dmax %, class
[7] = luminescence read at 6 and 24 hours after compound addition, read-out: VAV1 DC50
[8] = luminescence read at 6 and 24 hours after compound addition, read-out: VAV1 DC50 (nM), class

`O=C1CC[C@@](F)(c2cccc(-c3ccc(N4CCCCC4=O)cc3)c2Cl)C(=O)N1` (single isomer, unassigned) [Compound 368] showed a Dmax [1] of 98.5%, a Dmax [2] greater than 90% and a DC50 [3] of 1.84 nM. For the same molecule, the DC50 [4] was no more than 100 nM.

In the case of `O=C1CCC(c2cccc(-c3ccc(N4C(=O)C5CC4C5)cc3)c2Cl)C(=O)N1` (centres unmarked) [Compound 481, 3-(2-chloro-4′-{3-oxo-2-azabicyclo[2.1.1]hexan-2-yl}-[1,1′-biphenyl]-3-yl)piperidine-2,6-dione], the Dmax [1] is reported as 46%, the Dmax [2] is reported as less than 60% and the DC50 [3] is reported as no less than 10000 nM. It also gave a DC50 [4] greater than 1000 nM.

`O=C1CCC(c2cccc(-c3ccc(N4CCCOC4=O)cc3)c2Cl)C(=O)N1` (centres unmarked) [Compound 204, 3-(2-chloro-4′-(2-oxo-1,3-oxazinan-3-yl)-[1,1′-biphenyl]-3-yl)piperidine-2,6-dione] gave a Dmax [1] of 95.8%, a Dmax [2] greater than 90% and a DC50 [3] of 12.2 nM. It also gave a DC50 [4] of no more than 100 nM.

Work on `O=C1CCC(c2cccc(-c3ccc4c(c3)CCC(=O)N4)c2Cl)C(=O)N1` (centres unmarked) [Compound 492, 3-(2-chloro-3-(2-oxo-1,2,3,4-tetrahydroquinolin-6-yl)phenyl)piperidine-2,6-dione] yielded a Dmax [5] of 94.3%, a Dmax [6] greater than 90% and a DC50 [7] of 10.7 nM. For the same molecule, the DC50 [8] was no more than 100 nM.

`Cn1ncc2c1CCC(=O)N2c1ccc(-c2cccc(C3CCC(=O)NC3=O)c2Cl)cc1` (centres unmarked) [Compound 316] showed a Dmax [1] of 93.3%, a Dmax [2] greater than 90% and a DC50 [3] of 11.8 nM. For the same molecule, the DC50 [4] was no more than 100 nM.

`Cn1cnc(Cn2ncc3cc(-c4cccc(C5CCC(=O)NC5=O)c4Cl)ccc32)c1` (centres unmarked) [Compound 397, 3-(2-chloro-3-(1-((1-methyl-1H-imidazol-4-yl)methyl)-1H-indazol-5-yl)phenyl)piperidine-2,6-dione] showed a Dmax [1] of 99.1%, a Dmax [2] greater than 90% and a DC50 [3] of 3.01 nM. It also gave a DC50 [4] of no more than 100 nM.

Work on `O=C1CCC(c2cccc(-c3ccc(C(=O)N4CCC(F)(F)C4)cc3)c2Cl)C(=O)N1` (centres unmarked) [Compound 221, 3-(2-chloro-4′-(3,3-difluoropyrrolidine-1-carbonyl)-[1,1′-biphenyl]-3-yl)piperidine-2,6-dione] yielded a Dmax [1] of 77.4%, a Dmax [2] of 60 to 90% and a DC50 [3] of 211 nM. The DC50 [4] was 100 to 1000 nM.

For `CN1CC2(CCC(=O)N2c2ccc(-c3cccc(C4CCC(=O)NC4=O)c3Cl)cc2)C1` (centres unmarked) [Compound 371, 3-(2-chloro-4′-(2-methyl-6-oxo-2,5-diazaspiro[3.4]octan-5-yl)-[1,1′-biphenyl]-3-yl)piperidine-2,6-dione], the Dmax [1] was 37.8%, the Dmax [2] was less than 60% and the DC50 [3] was no less than 10000 nM. For the same molecule, the DC50 [4] was greater than 1000 nM.

In the case of `O=C1CCC(c2cccc(-c3ccc(Oc4ccccn4)cc3)c2Cl)C(=O)N1` (centres unmarked) [Compound 354, 3-(2-chloro-4′-(pyridin-2-yloxy)-[1,1′-biphenyl]-3-yl)piperidine-2,6-dione], the Dmax [1] is reported as 97.4%, the Dmax [2] is reported as greater than 90% and the DC50 [3] is reported as 13.3 nM. It also gave a DC50 [4] of no more than 100 nM.

Work on `Cn1ccc(COc2ccc(-c3cccc(C4CCC(=O)NC4=O)c3Cl)cn2)n1` (centres unmarked) [Compound 251, 3-(2-chloro-3-(6-((1-methyl-1H-pyrazol-3-yl)methoxy)pyridin-3-yl)phenyl)piperidine-2,6-dione] yielded a Dmax [1] of 73.8%, a Dmax [2] of 60 to 90% and a DC50 [3] of 354 nM. For the same molecule, the DC50 [4] was 100 to 1000 nM.

With `O=C1CCC(c2cccc(-c3ccc(OCC4CCOC4)cc3)c2Cl)C(=O)N1` (centres unmarked) [Compound 141] the Dmax [1] was 87.6%, the Dmax [2] was 60 to 90% and the DC50 [3] was 99.2 nM. For the same molecule, the DC50 [4] was no more than 100 nM.

Work on `O=C1CCC(c2cccc(-c3ccc(OCc4c[nH]cn4)cc3)c2Cl)C(=O)N1` (centres unmarked) [Compound 167, 3-(4′-((1H-imidazol-4-yl)methoxy)-2-chloro-[1,1′-biphenyl]-3-yl)piperidine-2,6-dione] yielded a Dmax [1] of 87.3%, a Dmax [2] of 60 to 90% and a DC50 [3] of 38.5 nM. It also gave a DC50 [4] of no more than 100 nM.

With `CC1CCN(c2ccc(-c3cccc(C4CCC(=O)NC4=O)c3Cl)cc2)C1=O` (centres unmarked) [Compound 304] the Dmax [1] was 72%, the Dmax [2] was 60 to 90% and the DC50 [3] was 274 nM. It also gave a DC50 [4] of 100 to 1000 nM.

`O=C1CCC(c2cccc(-c3ccc(N4C(=O)CCCC45CC5)cc3)c2Cl)C(=O)N1` (centres unmarked) [Compound 232, 3-(2-chloro-4′-(5-oxo-4-azaspiro[2.5]octan-4-yl)-[1,1′-biphenyl]-3-yl)piperidine-2,6-dione] showed a Dmax [1] of 98.5%, a Dmax [2] greater than 90% and a DC50 [3] of 2.8 nM. For the same molecule, the DC50 [4] was no more than 100 nM.

`O=C1CCC(c2cccc(-c3ccc(N4C(=O)CCn5nccc54)cc3)c2Cl)C(=O)N1` (centres unmarked) [Compound 330] was tested, and the Dmax [1] was 72.1%, the Dmax [2] was 60 to 90% and the DC50 [3] was 130 nM. The DC50 [4] was 100 to 1000 nM.

In the case of `Cc1ccn(Cc2ccc(-c3cccc(C4CCC(=O)NC4=O)c3Cl)cc2)c(=O)c1` (centres unmarked) [Compound 189, 3-(2-chloro-4′-((4-methyl-2-oxopyridin-1(2H)-yl)methyl)-[1,1′-biphenyl]-3-yl)piperidine-2,6-dione], the Dmax [1] is reported as 91.4%, the Dmax [2] is reported as greater than 90% and the DC50 [3] is reported as 33.7 nM. The DC50 [4] was no more than 100 nM.

Work on `O=C1CCC(c2cccc(-c3ccc4c(c3)CCCN4)c2Cl)C(=O)N1` (centres unmarked) [Compound 486, 3-(2-chloro-3-(1,2,3,4-tetrahydroquinolin-6-yl)phenyl)piperidine-2,6-dione] yielded a Dmax [5] of 96.2%, a Dmax [6] greater than 90% and a DC50 [7] of 6.51 nM. It also gave a DC50 [8] of no more than 100 nM.

`O=C1CCC(c2cccc(-c3ccc(CN4C(=O)COCC45CC5)cc3)c2Cl)C(=O)N1` (centres unmarked) [Compound 264] was tested, and the Dmax [1] was 84.6%, the Dmax [2] was 60 to 90% and the DC50 [3] was 39.5 nM. For the same molecule, the DC50 [4] was no more than 100 nM.

Work on `Cc1nccn1Cc1ccc(-c2cccc(C3CCC(=O)NC3=O)c2Cl)cc1` (centres unmarked) [Compound 111] yielded a Dmax [1] of 87.8%, a Dmax [2] of 60 to 90% and a DC50 [3] of 49.2 nM. For the same molecule, the DC50 [4] was no more than 100 nM.

In the case of `Nc1ccc(-c2cccc(C3CCC(=O)NC3=O)c2Cl)cc1Cl` (centres unmarked) [Compound 105], the Dmax [1] is reported as 97.7%, the Dmax [2] is reported as greater than 90% and the DC50 [3] is reported as 18.1 nM. The DC50 [4] was no more than 100 nM.

`O=C1CCC(c2cccc(-c3ccc(N4C(=O)CCCC45COC5)cc3)c2Cl)C(=O)N1` (centres unmarked) [Compound 407, 3-(2-chloro-4′-(6-oxo-2-oxa-5-azaspiro[3.5]nonan-5-yl)-[1,1′-biphenyl]-3-yl)piperidine-2,6-dione] gave a Dmax [1] of 95.5%, a Dmax [2] greater than 90% and a DC50 [3] of 6.17 nM. For the same molecule, the DC50 [4] was no more than 100 nM.

`O=C1CCC(c2cccc(-c3ccc(N4CCCOC4=O)nc3)c2Cl)C(=O)N1` (centres unmarked) [Compound 451, 3-(2-chloro-3-(6-(2-oxo-1,3-oxazinan-3-yl)pyridin-3-yl)phenyl)piperidine-2,6-dione] showed a Dmax [1] of 64%, a Dmax [2] of 60 to 90% and a DC50 [3] of 542 nM. It also gave a DC50 [4] of 100 to 1000 nM.

In the case of `Nc1ccnn1Cc1ccc(-c2cccc(C3CCC(=O)NC3=O)c2Cl)cc1` (centres unmarked) [Compound 118], the Dmax [1] is reported as 89.7%, the Dmax [2] is reported as 60 to 90% and the DC50 [3] is reported as 39.7 nM. For the same molecule, the DC50 [4] was no more than 100 nM.

`CN1CC(=O)N(c2ccc(-c3cccc(C4CCC(=O)NC4=O)c3Cl)cc2)c2cncnc21` (centres unmarked) [Compound 326] was tested, and the Dmax [1] was 90.9%, the Dmax [2] was greater than 90% and the DC50 [3] was 16.2 nM. For the same molecule, the DC50 [4] was no more than 100 nM.

`O=C1CCC(c2cccc(-c3ccc(Cc4cnccn4)cc3)c2Cl)C(=O)N1` (centres unmarked) [Compound 159, 3-(2-chloro-4′-(pyrazin-2-ylmethyl)-[1,1′-biphenyl]-3-yl)piperidine-2,6-dione] showed a Dmax [1] of 96%, a Dmax [2] greater than 90% and a DC50 [3] of 14.8 nM. For the same molecule, the DC50 [4] was no more than 100 nM.

Molecule `CC1CCN(Cc2ccc(-c3cccc(C4CCC(=O)NC4=O)c3Cl)cc2)C(=O)C1` (centres unmarked) [Compound 286] has a Dmax [1] of 94%, a Dmax [2] greater than 90% and a DC50 [3] of 15.9 nM. The DC50 [4] was no more than 100 nM.

With `Cn1ccc(COc2ccc(-c3cccc([C@@H]4CCC(=O)NC4=O)c3Cl)cc2)n1` [Compound 209, (S)-3-(2-chloro-4′-((1-methyl-1H-pyrazol-3-yl)methoxy)-[1,1′-biphenyl]-3-yl)piperidine-2,6-dione] the Dmax [1] was 93.3%, the Dmax [2] was greater than 90% and the DC50 [3] was 7.35 nM. For the same molecule, the DC50 [4] was no more than 100 nM.

Molecule `Cn1ccc2c1C(=O)N(Cc1ccc(-c3cccc(C4CCC(=O)NC4=O)c3Cl)cc1)CC2` (centres unmarked) [Compound 272] has a Dmax [1] of 96.8%, a Dmax [2] greater than 90% and a DC50 [3] of 13.6 nM. The DC50 [4] was no more than 100 nM.

Work on `CN1CCC(C)(C)N(c2ccc(-c3cccc(C4CCC(=O)NC4=O)c3Cl)cc2)C1=O` (centres unmarked) [Compound 378, 3-(2-chloro-4′-(3,6,6-trimethyl-2-oxotetrahydropyrimidin-1(2H)-yl)-[1,1′-biphenyl]-3-yl)piperidine-2,6-dione] yielded a Dmax [1] of 98.3%, a Dmax [2] greater than 90% and a DC50 [3] of 1.56 nM. For the same molecule, the DC50 [4] was no more than 100 nM.

Molecule `O=C1CCC(c2cccc(-c3ccc(N4C(=O)NCCC45CCC5)cc3)c2Cl)C(=O)N1` (centres unmarked) [Compound 349, 3-(2-chloro-4′-(6-oxo-5,7-diazaspiro[3.5]nonan-5-yl)-[1,1′-biphenyl]-3-yl)piperidine-2,6-dione] has a Dmax [1] of 98.3%, a Dmax [2] greater than 90% and a DC50 [3] of 2.21 nM. It also gave a DC50 [4] of no more than 100 nM.

Work on `CC1(C)CCCC(=O)N1Cc1ccc(-c2cccc(C3CCC(=O)NC3=O)c2Cl)cc1` (centres unmarked) [Compound 292] yielded a Dmax [1] of 93.7%, a Dmax [2] greater than 90% and a DC50 [3] of 12.7 nM. The DC50 [4] was no more than 100 nM.

With `Cn1ccc(NCc2ccc(-c3cccc(C4CCC(=O)NC4=O)c3Cl)cc2)n1` (centres unmarked) [Compound 196, 3-(2-chloro-4′-(((1-methyl-1H-pyrazol-3-yl)amino)methyl)-[1,1′-biphenyl]-3-yl)piperidine-2,6-dione] the Dmax [1] was 95.6%, the Dmax [2] was greater than 90% and the DC50 [3] was 9.34 nM. The DC50 [4] was no more than 100 nM.
